What is called melting point is the temperature, or range, at which the solid turns liquid.

Compound `CCCN(CCC)c1c(CC)nn2c(-c3ccc(Cl)cc3Cl)cccc12.O=C(O)/C=C\C(=O)O` [Example 11, 7-(2,4-Dichlorophenyl)-2-ethyl-N,N-dipropylpyrazolo[1,5-a]pyridin-3-amine maleic acid salt] had a melting point of 106 to 112 °C.

Consider `CCCN(CCC)c1c(CC)nn2c(-c3ccc(OC)cc3C)cccc12` [Example 12, 2-Ethyl-7-(4-methoxy-2-methylphenyl)-N,N-dipropylpyrazolo[1,5-a]pyridin-3-amine], for which the melting point lay within 76 to 79 °C.

With `CCCN(CCC)c1c(CC)nn2c(-c3ccc(OC)cc3Cl)cccc12` [Example 13, 7-(2-Chloro-4-methoxyphenyl)-2-ethyl-N,N-dipropylpyrazolo[1,5-a]pyridin-3-amine], the melting point lay within 73.6 to 76 °C.

Consider `CCCN(CCC)c1c(CC)nn2c(-c3ccc(N(C)C)cc3C(F)(F)F)cccc12` [Example 14, 7-[4-(Dimethylamino)-2-(trifluoromethyl)phenyl]-2-ethyl-N,N-dipropylpyrazolo[1,5-a]pyridin-3-amine], for which the melting point is 69.1 to 79.8 °C.

With `CCCN(CCC)c1c(CC)nn2c(-c3ccc(N(C)C)cc3Cl)cccc12` [Example 16, 7-[2-Chloro-4-(dimethylamino)phenyl]-2-ethyl-N,N-dipropylpyrazolo[1,5-a]pyridin-3-amine], the melting point was 132.8 to 134.3 °C.

On to `CCCN(CCC)c1c(CC)nn2c(-c3cnc(N(C)C)cc3C)cccc12` [Example 18, 7-[6-(Dimethylamino)-4-methylpyridin-3-yl]-2-ethyl-N,N-dipropylpyrazolo[1,5-a]pyridin-3-amine], for which the melting point lay in the range of 98.5 to 100.3 °C.

For the compound `CCc1nn2c(-c3ccc(OC)cc3Cl)cccc2c1N(CCF)CCOC` [Example 25, 7-(2-Chloro-4-methoxyphenyl)-2-ethyl-N-(2-fluoroethyl)-N-(2-methoxyethyl)pyrazolo[1,5-a]pyridin-3-amine], the melting point lay in the range of 45.8 to 52.8 °C.

Take `COc1ccc(-c2cccc3c(C(C)C)c(C)nn23)c(Cl)c1` [Example 40, 7-(2-Chloro-4-methoxyphenyl)-3-isopropyl-2-methylpyrazolo[1,5-a]pyridine]: the melting point was in the range of 111.9 to 114.9 °C.

Source of the values: patent publication US7151109B2, “Pyrazolo[1,5-a]pyridine derivatives and their use as neurotransmitter modulators” (Pharmacia & Upjohn Company LLC, priority 2002, dated 2006).
